Like-named read-outs stand apart in the source and are kept apart here.
Assays:
[1] = in a solution of sodium chloride; cited from earlier work
[2] = tested on: patients receiving Cisplatin chemotherapy for standard risk hepatoblastoma; type: in vivo, human
Text: The control arm included cisplatin only treated patients and the test arm including cisplatin treated patients followed by administration of STS.
The primary end point of the study was the rate of Brock grade ≥1 hearing loss determined after end of trial treatment or at an age of at least 3.5 years, whichever was later. Secondary end-points included: response to preoperative chemotherapy, complete resection, complete remission, event free survival (EFS), overall survival (OS), toxicity as graded by CTCAE v 3.0, long-term renal clearance, and feasibility of central audiology review
• Pre-operative randomised 1:1 chemotherapy (4 courses of Cisplatin, with or without STS, every second week) • Surgical removal of all remaining tumour lesions.
For all patients, the pre-surgery courses were given on day 1, 15, 29 and 43 (exceptionally, if surgery was delayed, courses could also be given on day 57 and 71). Post-surgery courses were started as soon as possible, but within 21 days with two courses given on day 1 and 15. […] The following treatment schedules were followed:
Administration Pre-hydration • At least 3 hours pre-hydration with 2.5% dextrose/0.45% saline • Run at 200 ml/m2/hr (total volume 600 ml/m^2) Cisplatin infusion over 6 hours • Cisplatin in 0.9% sodium chloride. […]

[3] = tested on: pediatric patients receiving cisplatin
Text: (§1) Secondary endpoints were frequency-specific hearing loss at 4 weeks (for 500 Hz, 1000 Hz, 2000 Hz, 4000 Hz, and 8000 Hz), haematological and renal toxicity, event free survival (defined as the time from study enrolment until disease relapse or progression, diagnosis of a second malignant neoplasm, or death, whichever came first), and overall survival (defined as the time from enrolment to death or last date confirmed alive). By protocol amendment on Mar.
We estimated the probability of remaining event free as a function of time post-enrolment using the method of Kaplan and Meier. We compared risk of event across groups defined by randomised regimen using the log-rank statistic. We generated relative hazard ratios (RHR) and 95% CIs by fitting a relative-risk regression model, using partial likelihood where the model contained the characteristic of interest as the only variable. We computed survival estimates as 3-year event-free survival and 3-year overall survival. We did a post-hoc analysis of event-free survival and overall survival by extent of disease using the same methods. We considered all eligible participants in the survival analyses by intention to treat. We did all statistical calculations using SAS (version 9.4) or Stata (version 14).

[4] = tested on: small cell lung cancer cell cultures; details: cited from earlier work
[5] = tested on: pediatric patients receiving cisplatin; details: for Incidence of hearing loss / Hearing loss: 4 weeks; for Mean change in hearing threshold: baseline to 4 weeks after cisplatin, negative = better threshold
Text: The study was designed as a multicentre, randomised, open-label, phase 3 clinical trial. Patients were enrolled at 38 participating Children's Oncology Group (COG) hospitals in the USA and Canada. Written consent or assent from participants or their legal guardians were obtained before registration. The study was approved by the US National Cancer Institute (NCI) Central Institutional Review Board and site institutional review boards. Co-enrollment onto a companion observational cohort study of ototoxicity grading scales was mandatory. Participants in the study were aged 1-18 years at study entry and were newly diagnosed with hepatoblastoma, germ cell tumour, medulloblastoma or CNS primitive neuroectodermal tumour, neuroblastoma, osteosarcoma, or other cancer types treated with cisplatin.
Key eligibility criteria included planned cumulative cisplatin dose of 200 mg/m^2 or more and infusion duration of 6 h or less; performance score of 50 or more by the Karnofsky (>16 years) or Lansky (≤16 years) scales; no previous cisplatin or carboplatin treatment; no known thiol hypersensitivity; and normal institutional laboratory values reflecting haematological, renal, and hepatic function. Normal hearing was required before enrolment as defined by hearing thresholds of 20 dB hearing level (HL) or less at 500-8000 Hz when measured with earphones or 25 dB HL or less when measured in the sound field, or as defined by brainstem auditory evoked response thresholds equivalent to behavioural thresholds of 20 dB HL or less. Previous cranial irradiation was initially not allowed but later permitted, provided hearing was normal, by a protocol amendment (Mar. 31, 2010) to augment trial recruitment. Patients were not eligible if they were registered on a cancer directed COG therapeutic study to avoid potential confounding of the primary aims by the ACCL0431 randomization.
The randomization was centrally computer-generated by the COG trial management system. Allocation was electronically concealed to all investigators, clinicians, and participants. Site research staff did the enrolment, entering eligibility confirmation and specification of stratification factors into the COG trial management system, and receiving the electronically generated allocation for the site. Randomization was 1:1 and was initially stratified into four groups defined by age (<5 years or ≥5 years) and duration of cisplatin infusion (<2 h or ≥2 h). Later, we added one separate stratum for eligible participants who had previously received cranial irradiation, irrespective of age or duration of cisplatin infusion. Randomization was masked for central reviewers of audiometry data, but was not placebo controlled for participants or treating clinicians to minimise complexity and cost for participating sites.
(§2) Cisplatin was administered as specified by each participant's cancer treatment plan. For participants randomly assigned to the control group, the cisplatin containing treatment regimen alone was to be administered. […] Concurrent use of other ototoxic drugs (eg, aminoglycosides and loop diuretics) was discouraged by protocol for all participants but captured in data reporting.
Hearing assessments were done at baseline, up to 8 days before each cisplatin course, 4 weeks after completion of the final cisplatin course, and 1 year later. Audiometry included measurement of bilateral pure tone air conduction thresholds at 500-8000 Hz with earphones or in the sound field using paediatric hearing assessment methods; otoscopy; immittance evaluation of middle ear function; and evoked otoacoustic emissions, if available. For participants unable to cooperate due to very young age, developmental disability, or medical status, brainstem auditory evoked response thresholds were to be measured instead.
Audiological testing was completed using standard clinical audiometers, middle ear analyzers, evoked potentials systems, and evoked otoacoustic emission OAE systems (if available).

[6] = tested on: pediatric patients receiving cisplatin; experiment: Phase 3 trial of Example 1: haematological and renal toxicity, adverse events
Method: as §2, §1
For haematological and renal toxicity, denominators represent the number of participants who completed the required toxicity assessment during each cycle. For both types of toxicity, we assessed the hypothesis of no difference in incidence using a χ^2 test of proportions.

[7] = cited from earlier work
[8] = all eligible, 61 participants assigned

Compound: N.N.[Cl][Pt][Cl] [cisplatin]
- Stability post dilution [1]: ≤ 7 days
- Patients having Brock grade 0 or little to no hearing loss ([2]; by treatment arm): below 40%
- Incidence rate of Brock ≥1 hearing loss ([2]; by treatment arm (cisplatin only or cisplatin followed by STS)): 67%

Compound: sodium thiosulfate
- Deaths, number [3, 8]: 17
- Events, number [3, 8]: 26
- Deaths, number ([3]; disseminated disease): 11
- Events, number ([3]; disseminated disease): 12
- Event-free survival vs control group ([3]; disseminated disease (n=47)): no difference
- Overall survival vs control group ([3]; disseminated disease (n=47)): significantly lower
- 3-year event-free survival ([3]; disseminated disease, post-hoc): 42%
- 3-year overall survival ([3]; disseminated disease, post-hoc): 45%
- 3-year event-free survival ([3]; entire sample): 54%
- 3-year overall survival ([3]; entire sample): 70%
- Event-free survival or overall survival vs control group ([3]; entire sample): no significant difference
- Deaths, number ([3]; localised disease): six
- Events, number ([3]; localised disease): 14
- Event-free survival or overall survival vs control group ([3]; localised disease (n=77)): no significant difference
- 3-year event-free survival ([3]; localised disease, post-hoc): 60%
- 3-year overall survival ([3]; localised disease, post-hoc): 83%
- Effect of STS on cytotoxicity of etoposide ([4]; immediate or delayed addition of STS, incubation for 72 hours): no reduction of cytotoxicity
- Effect of STS on anti-tumor activity of doxorubicin, carmustine (BCNU), paclitaxel or methotrexate ([4]; similar studies): no reduction of anti-tumor activity
- Hearing loss (ASHA criteria), proportion of participants ([5]; 4 weeks after final cisplatin, all assessable participants (49 in STS group)): 28.6%
- Incidence of hearing loss ([5]; after cisplatin infusion of 2-6 h): 41.7%
- Incidence of hearing loss ([5]; after cisplatin infusion of less than 2 h): 16.0%
- Incidence of hearing loss ([5]; older patients (5 years or more)): 31.4%
- Incidence of hearing loss ([5]; participants younger than 5 years): 21.4%
- Hearing loss ([5]; post-hoc, eight irradiated participants excluded): 26.7%
- Hearing loss ([5]; stratum of previous cranial irradiation): 50%
- Change between groups (Control vs STS) in mean hearing threshold change ([5]; 500 Hz): 0.4
- Mean change in hearing threshold ([5]; 500 Hz): −1.5
- Change between groups (Control vs STS) in mean hearing threshold change ([5]; 1000 Hz): 0.4
- Mean change in hearing threshold ([5]; 1000 Hz): −0.7
- Change between groups (Control vs STS) in mean hearing threshold change ([5]; 2000 Hz): 1.8
- Mean change in hearing threshold ([5]; 2000 Hz): −1.2
- Change between groups (Control vs STS) in mean hearing threshold change ([5]; 4000 Hz): 8.5
- Mean change in hearing threshold ([5]; 4000 Hz): 1.1
- Change between groups (Control vs STS) in mean hearing threshold change ([5]; 8000 Hz): 7.3
- Mean change in hearing threshold ([5]; 8000 Hz): 9.7
- ASHA-defined hearing loss ([5]; at 1 year, post-hoc analysis): 28%
- Hypokalaemia (most common non-haematological adverse event), participant cycles ([6]; 25 of 147 participant cycles): 17%
- Aggregate nephrotoxicity, participant cycles affected ([6]; 37 of 147 participant cycles): 25%
- Grade 3-4 neutropenia, participant cycles ([6]; 117 of 177 participant cycles, irrespective of attribution): 66%
- Haematological toxicity, participant cycles affected ([6]; 137 of 177 participant cycles): 77%
- Serious adverse events reported, number ([6]; in 26 patients): 194
- Haematological serious adverse events, number ([6]; in vivo): 70
- Hypophosphataemia and hypokalaemia vs control group ([6]; in vivo): more common
- Increased creatinine or reduced glomerular filtration rate meeting CTCAE grade 3 threshold ([6]; in vivo): no cases
- Non-haematological serious adverse events, number ([6]; in vivo): 85
- Haematological serious adverse events deemed possibly related, number ([6]; of 70): four
- Haematological serious adverse events deemed unlikely related, number ([6]; of 70): 13
- Haematological serious adverse events deemed unrelated, number ([6]; of 70): 53
- Haematological serious adverse events probably or definitely related ([6]; of 70): none
- Non-haematological serious adverse events deemed possibly related, number ([6]; of 85): 11
- Non-haematological serious adverse events deemed unlikely related, number ([6]; of 85): 25
- Non-haematological serious adverse events deemed unrelated, number ([6]; of 85): 49
- Non-haematological serious adverse events probably or definitely related ([6]; of 85): none
- Serious adverse events deemed possibly related, number ([6]; of 194): 20
- Serious adverse events deemed unlikely related, number ([6]; of 194): 62
- Serious adverse events deemed unrelated, number ([6]; of 194): 112
- Serious adverse events probably or definitely related ([6]; of 194): none
- Serious adverse events: decreased platelet count, number ([6]; of 194, in 12 participants): 23
- Serious adverse events: decreased neutrophil count, number ([6]; of 194, in 14 participants): 26
- Serious adverse events: anaemia, number ([6]; of 194, in ten participants): 21
- Excreted unchanged in the urine ([7]; following IV injection): Up to 95%
- Biological half-life ([7]; in vivo): 0.65 hours
- Biological half-life, range dependent on dose ([7]; in vivo): 16.5-182 minutes
